Experiments:
Thyrotropin receptor [1] = target: T1, Thyrotropin receptor (Homo sapiens, UniProt P16473); experiment: Agonist activity at TSHR (unknown origin) transiently transfected HEK-EM293 cells assessed as cAMP level after 1 hr by ELISA; assay type: functional, cell-based
[2] = Half life in acidic aqueous conditions at pH 2; assay type: physicochemical; conditions: acidic aqueous solution
Thyrotropin receptor [3] = target: T1, Thyrotropin receptor; experiment: Agonist activity at TSHR (unknown origin)
[4] = target: Lutropin-choriogonadotropic hormone receptor (Homo sapiens, UniProt P22888); experiment: Agonist activity at LHCGR (unknown origin)
Lutropin-choriogonadotropic hormone receptor, sequence (P22888 whole entry): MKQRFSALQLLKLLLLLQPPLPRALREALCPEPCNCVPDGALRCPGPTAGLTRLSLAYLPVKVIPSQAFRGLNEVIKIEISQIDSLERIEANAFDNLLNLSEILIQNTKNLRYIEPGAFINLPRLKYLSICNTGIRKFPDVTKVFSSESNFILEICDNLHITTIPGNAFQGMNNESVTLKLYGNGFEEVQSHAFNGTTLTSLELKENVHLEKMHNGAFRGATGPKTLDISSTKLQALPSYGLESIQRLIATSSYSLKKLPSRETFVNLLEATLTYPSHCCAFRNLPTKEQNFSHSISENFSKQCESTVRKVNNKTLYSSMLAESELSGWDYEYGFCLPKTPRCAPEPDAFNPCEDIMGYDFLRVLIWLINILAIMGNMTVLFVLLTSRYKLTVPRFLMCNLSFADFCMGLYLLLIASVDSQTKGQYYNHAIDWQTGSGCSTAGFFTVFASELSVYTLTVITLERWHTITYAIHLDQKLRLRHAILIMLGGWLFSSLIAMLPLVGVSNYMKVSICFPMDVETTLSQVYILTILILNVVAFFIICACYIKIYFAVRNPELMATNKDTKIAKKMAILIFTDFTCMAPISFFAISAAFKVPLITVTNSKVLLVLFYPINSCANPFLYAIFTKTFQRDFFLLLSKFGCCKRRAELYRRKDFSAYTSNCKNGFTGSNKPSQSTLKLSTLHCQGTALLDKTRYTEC

T1 sequence (P16473 whole entry): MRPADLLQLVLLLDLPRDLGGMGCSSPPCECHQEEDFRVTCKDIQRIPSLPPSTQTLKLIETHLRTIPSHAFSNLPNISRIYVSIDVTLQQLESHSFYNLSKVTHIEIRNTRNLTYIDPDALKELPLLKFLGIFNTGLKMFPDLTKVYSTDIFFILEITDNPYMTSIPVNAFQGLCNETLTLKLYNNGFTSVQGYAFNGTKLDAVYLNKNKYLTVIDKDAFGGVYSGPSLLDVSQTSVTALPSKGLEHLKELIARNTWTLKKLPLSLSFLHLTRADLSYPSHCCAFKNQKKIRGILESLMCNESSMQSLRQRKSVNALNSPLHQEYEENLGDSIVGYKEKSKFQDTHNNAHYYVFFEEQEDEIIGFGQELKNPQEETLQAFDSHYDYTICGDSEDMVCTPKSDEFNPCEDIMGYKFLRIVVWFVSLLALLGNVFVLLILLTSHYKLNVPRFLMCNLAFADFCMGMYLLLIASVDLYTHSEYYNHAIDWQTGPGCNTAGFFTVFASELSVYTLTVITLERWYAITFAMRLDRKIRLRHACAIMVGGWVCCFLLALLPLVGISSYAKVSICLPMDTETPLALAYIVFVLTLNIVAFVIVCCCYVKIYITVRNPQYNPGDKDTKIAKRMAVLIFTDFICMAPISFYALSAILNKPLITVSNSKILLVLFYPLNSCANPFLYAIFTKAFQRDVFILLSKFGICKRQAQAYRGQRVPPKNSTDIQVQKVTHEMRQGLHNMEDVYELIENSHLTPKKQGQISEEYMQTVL

Structure (SMILES)	EC50 (Thyrotropin receptor [1])	also measured
CCCCN1C(=O)c2ccccc2NC1c1ccc(OC)c(COc2ccc(NC(C)=O)cc2)c1 (configuration not stated)	830 nM	
COc1ccc(C2Nc3ccccc3C(=O)N2Cc2ccccc2)cc1COc1ccc(NC(C)=O)cc1 (configuration not stated)	290 nM	
COc1ccc(C2Nc3ccccc3C(=O)N2Cc2ccco2)cc1COc1ccc(NC(C)=O)cc1 (configuration not stated)	1160 nM	
COc1ccc(-c2nc3ccccc3c(=O)n2Cc2ccccc2)cc1COc1ccc(NC(C)=O)cc1	960 nM	
COc1ccc(-c2nc3ccccc3c(=O)n2Cc2ccco2)cc1COc1ccc(NC(C)=O)cc1	930 nM	
COc1ccc(C2Nc3cccc(OC)c3C(=O)N2Cc2ccccc2)cc1COc1ccc(NC(C)=O)cc1 (configuration not stated)	4480 nM	
COc1ccc(C2Nc3cccc(O)c3C(=O)N2Cc2ccccc2)cc1COc1ccc(NC(C)=O)cc1 (configuration not stated)	90 nM	half-life [2]: 3 h
COc1ccc(OCc2cc(C3Nc4ccccc4C(=O)N3Cc3ccccc3)ccc2OC)cc1 (configuration not stated)	2160 nM	
COc1ccc(C2Nc3ccccc3C(=O)N2Cc2ccncc2)cc1COc1ccc(NC(C)=O)cc1 (configuration not stated)	3980 nM	
COc1ccc(C2Nc3ccccc3C(=O)N2CCc2ccccc2)cc1COc1ccc(NC(C)=O)cc1 (configuration not stated)	430 nM	
COc1ccc(C2Nc3ccccc3C(=O)N2c2ccccc2)cc1COc1ccc(NC(C)=O)cc1 (configuration not stated)	5090 nM	
COc1ccc(C2Nc3ccc(O)cc3C(=O)N2Cc2ccccc2)cc1COc1ccc(NC(C)=O)cc1 (configuration not stated)	330 nM	
COc1ccc(C2Nc3ccccc3C(=O)N2Cc2ccccc2)cc1COc1cccc(NC(C)=O)c1 (configuration not stated)	4340 nM	
COc1ccc(C2Nc3cccc(F)c3C(=O)N2Cc2ccccc2)cc1COc1ccc(NC(C)=O)cc1 (configuration not stated)	280 nM	
COc1ccc(C2Nc3cccc(O)c3C(=O)N2Cc2ccccc2)cc1CSc1ccc(NC(C)=O)cc1 (configuration not stated)	18 nM	
COc1ccc(-c2nc3cccc(O)c3c(=O)n2Cc2ccccc2)cc1COc1ccc(NC(C)=O)cc1	550 nM	
COc1ccc(C2Nc3ccccc3C(=O)N2Cc2ccccc2)cc1CSc1ccc(NC(C)=O)cc1 (configuration not stated)	80 nM	
CC(=O)Nc1ccc(OCc2cccc(C3Nc4ccccc4C(=O)N3Cc3ccccc3)c2)cc1 (configuration not stated)	1860 nM	
COc1ccc(C2Nc3ccccc3C(=O)N2Cc2ccccc2)cc1COc1ccccc1 (configuration not stated)	2570 nM	
COc1cccc(-c2nc(SC)nc3sc(C(=O)NC(C)(C)C)c(N)c23)c1		EC50 (Thyrotropin receptor [3]): 7700 nM; EC50 [4]: 220 nM
